Measurements taken from patent publication US12435128B2, “Method for predicting therapeutic effect of LSD1 inhibitor based on expression of INSM1” (TAIHO PHARMACEUTICAL CO., LTD., priority 2017, dated 2025).
Structures can show the parent of a compound that is named as a salt. Where two headings read alike, the source gives them in different places.

How the values were obtained:
Assay type in all cases: cell-based
[1] = tested on: NCI-H146 cells (human small-cell lung cancer cell lines); assay: Cell-growth inhibition test: NCI-H146 cells; conditions: NCI-H146 cells; read-out: IC50 (nM), Cell-Growth Inhibition Test: NCI-H146 Cells
Protocol: (§1) Under the following conditions, an in vitro cell-growth inhibition test was performed with respect to HEL cells (human acute myelocytic leukemia cell lines), NCI-H1417 cells (human small-cell lung cancer cell lines), and NCI-H146 cells (human small-cell lung cancer cell lines).
(§2) The cells with the Example compound or with dimethylsulfoxide alone were cultured at 37° C. in a 5% carbon-dioxide-containing incubator for 5 days (HEL cells) or 10 days (NCI-H1417 cells and NCI-H146 cells). After culture, the plate was allowed to stand at room temperature for 30 minutes, and 100 μL of the supernatant was removed from each well to leave 100 μL of the cell culture solution. To each well containing the remaining 100 μL of the cell culture solution, the same amount of CellTiter-Glo 2.0 Assay (Promega, Cat #: G9242) was added. The microplate was shaken with a plate mixer for 1 minute and then allowed to stand in a dark place for 10 minutes. Thereafter, the luminescence intensity of viable cells in each well was measured using a microplate reader (PerkinElmer, EnSpire). […] Cell growth rate(%)=T/C×100 • T: The luminescence intensity in a well to which the test compound was added (count per second) • C: The luminescence intensity in a well to which dimethylsulfoxide alone was added (count per second)

[2] = tested on: NCI-H1417 cells (human small-cell lung cancer cell lines); assay: Cell-growth inhibition test: NCI-H1417 cells; conditions: read-out: IC50 (nM), Cell-Growth Inhibition Test: NCI-H1417 Cells
Protocol: as §1, §2

[3] = tested on: HEL cells (human acute myelocytic leukemia cell lines); assay: Cell-growth inhibition test: HEL cells; conditions: read-out: IC50 (nM), Cell-Growth Inhibition Test: HEL Cells
Protocol: as §1, §2

| Compound | IC50 [1] | IC50 [2] | IC50 [3] | IC50 ([2]; NCI-H1417 cells) | IC50 ([3]; HEL cells) |
| --- | --- | --- | --- | --- | --- |
| CC(C)(O)Cn1nnc2cc(-c3ccc(C(=O)N4[C@@H]5CC[C@H]4[C@@H](N)C5)cc3-c3ccc(C#N)c(F)c3)c(F)c(C#N)c21 (single isomer, unassigned) [Example 247] | 3.84 nM | 1.4 nM | 3.02 nM |  |  |
| N#Cc1ccc(-c2cc(C(=O)N3C4CCC3CC(N)C4)ccc2-c2cc3nnn(CC4(O)CCC4)c3c(C(F)F)c2F)cc1F (stereo not drawn) [Example 262, 5′-((3-endo)-3-amino-8-azabicyclo[3.2.1]octane-8-carbonyl)-2′-(7-(difluoromethyl)-6-fluoro-1-((1-hydroxycyclobutyl)methyl)-1H-benzo[d][1,2,3]triazol-5-yl)-3-fluoro-[1,1′-biphenyl]-4-carbonitrile] | 3.1 nM | 0.7 nM | 0.93 nM |  |  |
| Cc1c(F)c(-c2ccc(C(=O)N3[C@@H]4CC[C@H]3[C@@H](N)C4)cc2-c2ccc(C#N)c(F)c2)cc2nnn(CC(C)(C)O)c12 (single isomer, unassigned) [Example 228] | 0.51 nM | 0.3 nM | 0.68 nM |  |  |
| Cn1ccc2cc(-c3ccc(C(=O)N4C5CCC4CC(N)C5)cc3-c3ccc(C#N)c(F)c3)ccc21 (stereo not drawn) [Example 18, 4-[5-[(3-exo)-3-amino-8-azabicyclo[3.2.1]octane-8-carbonyl]-2-(1-methylindol-5-yl)phenyl]-2-fluoro-benzonitrile] | 8.13 nM |  |  | 4.73 nM | 3.55 nM |
| CCC(O)(CC)Cn1nnc2cc(-c3ccc(C(=O)N4[C@@H]5CC[C@H]4[C@@H](N)C5)cc3-c3ccc(C#N)c(F)c3)c(F)c(Cl)c21 (single isomer, unassigned) [Example 218] | 0.33 nM | 0.21 nM | 0.22 nM |  |  |
| Cc1c(F)c(-c2ccc(C(=O)N3C4CCC3CC(N)C4)cc2-c2ccc(C#N)c(F)c2)cc2nnn(CC(C)(C)O)c12 (stereo not drawn) [Example 240, 5′-((3-endo)-3-amino-8-azabicyclo[3.2.1]octane-8-carbonyl)-3-fluoro-2′-(6-fluoro-1-(2-hydroxy-2-methylpropyl)-7-methyl-1H-benzo[d][1,2,3]triazol-5-yl)-[1,1′-biphenyl]-4-carbonitrile] | 4.81 nM | 2.55 nM | 4.2 nM |  |  |
| N#Cc1ccc(-c2cc(C(=O)N3[C@@H]4CC[C@H]3[C@@H](N)C4)ccc2-c2cc3nnn(CC4(O)CCC4)c3c(C(F)F)c2F)cc1F (single isomer, unassigned) [Example 260] | 0.48 nM | 0.13 nM | 0.13 nM |  |  |
| N#Cc1ccc(-c2cc(CN3[C@@H]4CC[C@H]3[C@@H](N)C4)ccc2-c2cc3nnn(CC4(O)CCC4)c3c(Cl)c2F)cc1F (single isomer, unassigned) [Example 286, dihydrochloride] | 0.17 nM | 0.083 nM | 0.036 nM |  |  |
| Cc1ccc(-c2ccc(CN3[C@@H]4CC[C@H]3[C@@H](N)C4)cc2-c2ccc(C#N)c(F)c2)c(F)c1 (single isomer, unassigned) [Example 283] | 11.1 nM | 2.1 nM | 0.79 nM |  |  |
| Cn1ccc2cc(-c3ccc(C(=O)N4C5CCC4CC(N)C5)cc3-c3ccc(C#N)c(F)c3)c(F)cc21 (stereo not drawn) [Example 123, 4-[5-[(3-endo)-3-amino-8-azabicyclo[3.2.1]octane-8-carbonyl]-2-(6-fluoro-1-methyl-indol-5-yl)phenyl]-2-fluoro-benzonitrile] | 1.39 nM |  |  | 3.57 nM | 1.99 nM |
| CC(C)(O)CCn1ncc2cc(-c3ccc(C(=O)N4C5CCC4CC(N)C5)cc3-c3ccc(C#N)c(F)c3)c(F)cc21 (stereo not drawn) [Example 194, 5′-((3-endo)-3-amino-8-azabicyclo[3.2.1]octane-8-carbonyl)-3-fluoro-2′-(6-fluoro-1-(3-hydroxy-3-methylbutyl)-1H-indazol-5-yl)-[1,1′-biphenyl]-4-carbonitrile] | 11.3 nM | 5.63 nM | 15.5 nM |  |  |
| CCC(O)(CC)Cn1nnc2cc(-c3ccc(CN4[C@@H]5CC[C@H]4[C@@H](N)C5)cc3-c3ccc(C#N)c(F)c3)c(F)c(Cl)c21 (single isomer, unassigned) [Example 288, dihydrochloride] | 1.29 nM | 0.22 nM | 0.062 nM |  |  |
| N#Cc1ccc(-c2cc(C(=O)N3C4CCC3CC(N)C4)ccc2-c2cc3nnn(CC4(O)CCC4)c3c(C#N)c2F)cc1F (stereo not drawn) [Example 266, 5-(5-((3-endo)-3-amino-8-azabicyclo[3.2.1]octane-8-carbonyl)-4′-cyano-3′-fluoro-[1,1′-biphenyl]-2-yl)-6-fluoro-1-((1-hydroxycyclobutyl)methyl)-1H-benzo[d][1,2,3]triazole-7-carbonitrile] | 17.5 nM | 1.85 nM | 4.63 nM |  |  |
| CNC(=O)c1cn(C)c2cc(F)c(-c3ccc(C(=O)N4[C@@H]5CC[C@H]4[C@@H](N)C5)cc3-c3ccc(C#N)c(F)c3)cc12 (single isomer, unassigned) [Example 237] | 5.14 nM | 6.63 nM | 28.5 nM |  |  |
| CCC(O)(CC)Cn1ncc2cc(-c3ccc(C(=O)N4C5CCC4CC(N)C5)cc3-c3ccc(C#N)c(F)c3)c(F)cc21 (stereo not drawn) [Example 205, 5′-((3-endo)-3-amino-8-azabicyclo[3.2.1]octane-8-carbonyl)-2′-(1-(2-ethyl-2-hydroxybutyl)-6-fluoro-1H-indazol-5-yl)-3-fluoro-[1,1′-biphenyl]-4-carbonitrile] | 15.1 nM | 6.25 nM | 4.95 nM |  |  |
| CC(C)(O)CC1OCc2cc(-c3ccc(C(=O)N4[C@@H]5CC[C@H]4[C@@H](N)C5)cc3-c3ccc(C#N)c(F)c3)c(F)cc21 (single isomer, unassigned) [Example 226] | 10.1 nM | 5.36 nM | 2.56 nM |  |  |
| N#Cc1ccc(-c2cc(C(=O)N3[C@@H]4CC[C@H]3[C@@H](N)C4)ccc2-c2cc3nnn(CC4(O)CCC4)c3c(F)c2F)cc1F (single isomer, unassigned) [Example 254] | 0.36 nM | 0.18 nM | 0.2 nM |  |  |
| CCC(O)(CC)Cn1nnc2cc(-c3ccc(C(=O)N4C5CCC4CC(N)C5)cc3-c3ccc(C#N)c(F)c3)c(F)c(Cl)c21 (stereo not drawn) [Example 220, 5′-((3-endo)-3-amino-8-azabicyclo[3.2.1]octane-8-carbonyl)-2′-(7-chloro-1-(2-ethyl-2-hydroxybutyl)-6-fluoro-1H-benzo[d][1,2,3]triazol-5-yl)-3-fluoro-[1,1′-biphenyl]-4-carbonitrile] | 1.81 nM | 1.03 nM | 1.09 nM |  |  |
| CC(C)(O)Cn1nnc2cc(-c3ccc(C(=O)N4C5CCC4CC(N)C5)cc3-c3ccc(C#N)c(F)c3)c(F)c(C(F)F)c21 (stereo not drawn) [Example 250, 5′-((3-endo)-3-amino-8-azabicyclo[3.2.1]octane-8-carbonyl)-2′-(7-(difluoromethyl)-6-fluoro-1-(2-hydroxy-2-methylpropyl)-1H-benzo[d][1,2,3]triazol-5-yl)-3-fluoro-[1,1′-biphenyl]-4-carbonitrile] | 9.3 nM | 1.2 nM | 2.36 nM |  |  |
| CC(C)(O)Cn1ccc2cc(-c3ccc(CN4[C@@H]5CC[C@H]4[C@@H](N)C5)cc3-c3ccc(C#N)c(F)c3)c(F)cc21 (single isomer, unassigned) [Example 289, dihydrochloride] | 0.97 nM | 0.094 nM | 0.036 nM |  |  |
| N#Cc1ccc(-c2cc(C(=O)N3[C@@H]4CC[C@H]3[C@@H](N)C4)ccc2-c2cc3nnn(CC4(O)CCC4)c3c(C#N)c2F)cc1F (single isomer, unassigned) [Example 264] | 0.96 nM | 0.3 nM | 0.84 nM |  |  |
| CN(C)C(=O)c1cn(C)c2cc(F)c(-c3ccc(C(=O)N4[C@@H]5CC[C@H]4[C@@H](N)C5)cc3-c3ccc(C#N)c(F)c3)cc12 (single isomer, unassigned) [Example 238] | 17.7 nM | 10.8 nM | 26.1 nM |  |  |
| CCC(O)(CC)Cn1ncc2cc(-c3ccc(C(=O)N4[C@@H]5CC[C@H]4[C@@H](N)C5)cc3-c3ccc(C#N)c(F)c3)c(F)cc21 (single isomer, unassigned) [Example 206] | 1.09 nM | 0.95 nM | 0.4 nM |  |  |
| CC(C)(O)Cn1ccc2cc(-c3ccc(C(=O)N4C5CCC4CC(N)C5)cc3-c3ccc(C#N)c(F)c3)c(F)c(F)c21 (stereo not drawn) [Example 183, 5′-((3-endo)-3-amino-8-azabicyclo[3.2.1]octane-8-carbonyl)-2′-(6,7-difluoro-1-(2-hydroxy-2-methylpropyl)-1H-indol-5-yl)-3-fluoro-[1,1′-biphenyl]-4-carbonitrile] | 0.25 nM | 1.01 nM | 0.54 nM |  |  |
| Cc1noc2cc(-c3ccc(C(=O)N4[C@@H]5CC[C@H]4[C@@H](N)C5)cc3-c3ccc(C#N)c(F)c3)c(F)cc12 (single isomer, unassigned) [Example 202] | 0.73 nM | 0.62 nM | 0.24 nM |  |  |
